Assay type in all cases: cell-based, human
Assay [1] has as its system A549 cells. The assay can be described thus: Cytofluorometric assessment of cell death (DiOC6(3)/PI co-staining).
Assay [2] has as its system A549 cells. The assay can be described thus: Intracellular levels of CDDP in cell lysates. Conditions: 24 h, 25 μM CDDP alone or with PN and/or GSH, normalized to protein content. As to the method: (E,F) Intracellular levels of CDDP (normalized to protein content) in lysates from untransfected A549 cells (D) or A549 cells transfected with a PDXK-targeting siRNA (E), treated for 24 h with 25 μM CDDP alone or in combination with PN and/or GSH. Mean±SEM (n=6). *=p<0.05 (Studen's t test), as compared to untransfected (D) or siUNR transfected (E) cells treated with CDDP only. n.s.=non significant (Student's t test), as compared to cells treated with the same concentration of GSH (D) or to siPDXK-transfected cells treated with CDDP only (E).

Assay [3] deals with CDDP-resistant A549 clones (A549 #1-3), HCC827, H1299, H1650, H1975, HeLa, U2OS and WT HCT 116 cells. Put plainly: Cytofluorometric assessment of cell death, CDDP alone or combined with PN, panel of cell lines. Conditions: sub-apoptotic dose of CDDP alone or combined with 2.5 mM PN. The text has this: (A-C) Cytofluorometric assessment of cell death induced by the indicated sub-apoptotic dose of cisplatin (CDDP) alone or combined with PN in 3 distinct CDDP-resistant A549 clones (A549 #1-3, A), in 4 non-small cell lung cancer (NSCLC) cell lines other than A549 (HCC827, H1299, H1650 and H1975 cells, B), in cervical carcinoma HeLa cells, in osteosarcoma U2OS cells as well as in wild type (WT) or TP53^−/− colon carcinoma HCT 116 cells (C).
Unless otherwise specified, chemicals were purchased from Sigma-Aldrich (St. Louis, USA), culture media and supplements for cell culture from Gibco-Invitrogen (Carlsbad, USA) and plasticware from Corning (Corning, USA). Anti-human interleukin 6 (IL6, goat antiserum #AB-206-A) and IL6 receptor (IL6R, goat antiserum #AB-227-A) neutralizing antibodies were purchased by R&D Systems (Minneapolis, USA). Orlistat (Xenical®) was obtained from Roche (Basel, Switzerland). […]
To measure apoptosis-related parameters, living cells were labeled for 30 min at +37° C. with 40 nM 3,3′dihexyloxalocarbocyanine iodide (DiOC6(3), from Molecular Probes-Invitrogen, Eugene, USA), which quantifies the mitochondrial transmembrane potential (Δψm), plus 1 μg/mL propidium iodide (PI), which only accumulates in cells with ruptured plasma membrane {Galluzzi, 2009; Galluzzi, 2008; Galluzzi, 2007}. […]

Structures are written as SMILES.

This note sets out measurements from US20130281313A1, “PROGNOSTIC AND/OR PREDICTIVE BIOMARKERS AND BIOLOGICAL APPLICATIONS THEREOF” (INSTITUT GUSTAVE ROUSSY, priority 2010, published 2013).

On to `Cc1ncc(CO)c(CO)c1O` [PN, pyridoxine], for which, in the assay on A549 cells [1] (A549 cells, 25 μM CDDP, co-treated for 48 h), the “CDDP-induced cell death upon acute addition of the vitamer (DiOC6(3)/PI co-staining)” value is listed as “exacerbated CDDP-induced cell death”. Moreover, in the assay on A549 cells [1] (siPDXK-transfected A549 cells, CDDP), the “effects of PN on CDDP-induced cell death upon PDXK depletion” value is “lost upon PDXK depletion”. Besides, the “intracellular accumulation of CDDP” value with A549 cells [2] was “significantly augmented by PN in a PDXK-dependent fashion”. In addition, the “chemosensitization to CDDP in other cancer cell lines” value in assay [3] was “exerted chemosensitizing effects”.
